We go through six compounds from ChEMBL document CHEMBL6127036, “Chaperoning system: Intriguing target to modulate the expression of CFTR in cystic fibrosis” (Eur J Med Chem, 2024).

Assay [1] has as its system Cystic fibrosis transmembrane conductance regulator (Homo sapiens), P13569 [F508del]. Description: Inhibition of CFTR F508del mutant (unknown origin) in FRT cells. The format is cell-based.
A short description of assay [2]: Inhibition of HSP70 (unknown origin) expressed in human HeLa cells. The class given is cell-based.
For assay [3], the target named is Cystic fibrosis transmembrane conductance regulator (Homo sapiens) (UniProt P13569). As to the kind of experiment: Activation of human CFTR expressed in rat FRT cells at 30 uM relative to control. The conditions noted are these: filed as activator. The class given is cell-based.
For assay [4] the target is unchanged. As to the kind of experiment: Inhibition of CFTR (unknown origin) at 10 uM relative to control.

Chain of Cystic fibrosis transmembrane conductance regulator (Homo sapiens), P13569 [F508del] (P13569 as listed by the source): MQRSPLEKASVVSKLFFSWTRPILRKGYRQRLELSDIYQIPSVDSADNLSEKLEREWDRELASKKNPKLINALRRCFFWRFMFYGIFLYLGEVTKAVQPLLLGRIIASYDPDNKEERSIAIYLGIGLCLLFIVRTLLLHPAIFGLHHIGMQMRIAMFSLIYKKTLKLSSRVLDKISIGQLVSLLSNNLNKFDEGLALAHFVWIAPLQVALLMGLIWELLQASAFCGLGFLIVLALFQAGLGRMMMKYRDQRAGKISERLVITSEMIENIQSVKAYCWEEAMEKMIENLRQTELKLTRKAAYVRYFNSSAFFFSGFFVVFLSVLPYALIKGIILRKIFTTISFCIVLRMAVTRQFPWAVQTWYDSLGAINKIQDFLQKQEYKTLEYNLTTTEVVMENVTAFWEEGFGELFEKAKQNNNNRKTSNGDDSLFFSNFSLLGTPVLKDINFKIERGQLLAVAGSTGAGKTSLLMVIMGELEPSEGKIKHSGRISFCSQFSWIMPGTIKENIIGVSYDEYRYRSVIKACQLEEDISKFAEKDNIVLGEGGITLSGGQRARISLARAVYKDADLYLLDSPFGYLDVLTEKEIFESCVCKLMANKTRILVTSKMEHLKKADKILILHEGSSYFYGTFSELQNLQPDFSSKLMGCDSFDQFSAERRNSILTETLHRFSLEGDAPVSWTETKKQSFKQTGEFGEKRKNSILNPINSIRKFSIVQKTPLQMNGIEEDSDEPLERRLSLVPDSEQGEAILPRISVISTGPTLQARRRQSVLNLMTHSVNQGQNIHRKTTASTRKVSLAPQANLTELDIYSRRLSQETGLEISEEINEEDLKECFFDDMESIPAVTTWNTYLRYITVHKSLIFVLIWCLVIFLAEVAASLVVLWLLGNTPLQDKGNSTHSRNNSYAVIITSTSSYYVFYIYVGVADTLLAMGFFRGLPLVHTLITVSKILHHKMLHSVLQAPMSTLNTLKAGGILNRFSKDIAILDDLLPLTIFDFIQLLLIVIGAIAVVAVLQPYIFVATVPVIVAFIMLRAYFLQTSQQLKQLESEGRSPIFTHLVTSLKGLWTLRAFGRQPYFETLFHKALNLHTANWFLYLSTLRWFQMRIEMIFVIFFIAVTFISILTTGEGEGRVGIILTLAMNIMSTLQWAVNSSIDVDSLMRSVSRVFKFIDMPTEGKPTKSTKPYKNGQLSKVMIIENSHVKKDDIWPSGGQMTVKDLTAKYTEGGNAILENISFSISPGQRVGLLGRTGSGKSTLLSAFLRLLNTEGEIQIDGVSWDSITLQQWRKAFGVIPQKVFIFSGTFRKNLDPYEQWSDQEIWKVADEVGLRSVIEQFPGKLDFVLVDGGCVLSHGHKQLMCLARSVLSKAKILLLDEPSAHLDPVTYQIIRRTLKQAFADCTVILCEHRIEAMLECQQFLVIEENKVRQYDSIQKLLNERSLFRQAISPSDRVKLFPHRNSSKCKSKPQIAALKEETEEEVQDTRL
Chain of Cystic fibrosis transmembrane conductance regulator (Homo sapiens) (P13569 whole entry, looked up): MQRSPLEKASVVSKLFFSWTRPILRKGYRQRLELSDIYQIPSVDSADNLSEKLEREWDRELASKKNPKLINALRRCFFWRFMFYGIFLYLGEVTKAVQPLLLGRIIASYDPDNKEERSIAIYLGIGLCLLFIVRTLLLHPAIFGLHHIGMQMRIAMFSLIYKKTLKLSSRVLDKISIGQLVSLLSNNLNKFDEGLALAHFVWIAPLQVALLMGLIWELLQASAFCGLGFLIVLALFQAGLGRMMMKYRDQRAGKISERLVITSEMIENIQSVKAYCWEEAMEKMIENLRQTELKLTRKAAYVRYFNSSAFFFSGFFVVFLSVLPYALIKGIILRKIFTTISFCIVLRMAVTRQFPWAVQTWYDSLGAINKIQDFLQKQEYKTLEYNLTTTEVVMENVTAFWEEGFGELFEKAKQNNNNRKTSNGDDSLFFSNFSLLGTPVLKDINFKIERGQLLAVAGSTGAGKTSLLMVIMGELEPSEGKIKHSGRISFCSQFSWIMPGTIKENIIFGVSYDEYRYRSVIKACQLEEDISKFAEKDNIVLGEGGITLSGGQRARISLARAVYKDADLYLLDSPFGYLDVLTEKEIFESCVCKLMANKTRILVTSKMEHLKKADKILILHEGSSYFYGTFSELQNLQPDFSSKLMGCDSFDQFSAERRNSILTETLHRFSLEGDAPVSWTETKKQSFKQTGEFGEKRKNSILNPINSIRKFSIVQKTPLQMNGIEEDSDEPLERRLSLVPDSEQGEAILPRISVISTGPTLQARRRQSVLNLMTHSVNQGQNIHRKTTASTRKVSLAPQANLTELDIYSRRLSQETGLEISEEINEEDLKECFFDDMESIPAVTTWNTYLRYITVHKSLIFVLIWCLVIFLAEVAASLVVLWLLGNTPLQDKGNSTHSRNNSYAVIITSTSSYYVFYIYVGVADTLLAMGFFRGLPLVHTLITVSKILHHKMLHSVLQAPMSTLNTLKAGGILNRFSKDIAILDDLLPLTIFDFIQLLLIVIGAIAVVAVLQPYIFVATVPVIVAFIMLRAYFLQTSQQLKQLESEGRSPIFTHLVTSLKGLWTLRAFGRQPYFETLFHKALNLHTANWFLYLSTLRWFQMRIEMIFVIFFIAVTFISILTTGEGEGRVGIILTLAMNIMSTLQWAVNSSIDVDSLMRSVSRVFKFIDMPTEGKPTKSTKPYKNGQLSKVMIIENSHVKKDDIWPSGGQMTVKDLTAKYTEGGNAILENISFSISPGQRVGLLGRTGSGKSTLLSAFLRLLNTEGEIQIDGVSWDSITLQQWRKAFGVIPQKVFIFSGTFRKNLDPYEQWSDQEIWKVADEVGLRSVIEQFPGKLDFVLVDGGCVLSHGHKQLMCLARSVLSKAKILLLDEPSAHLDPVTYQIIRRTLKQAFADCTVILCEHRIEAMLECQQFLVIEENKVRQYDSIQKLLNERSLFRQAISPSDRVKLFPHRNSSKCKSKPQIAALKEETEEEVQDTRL

In assay [1], `CCN(CC)c1ccc(N/N=C2\C(=O)C=Cc3ccccc32)cc1` showed a fold change (FC) of 15. Regarding `N#CCc1nnc(-c2ccccn2)[nH]1`, the fold change (FC) in assay [1] was found to be 25. For `N=C(N)NCCCC[C@H](O)CC(=O)N[C@@H](O)C(=O)NCCCCNCCCN`, in assay [2], the midpoint of the response, the EC50, lay at 5.4 µM.

Turning to `N=C(N)NCCCCCCC(=O)N[C@@H](O)C(=O)NCCCCNCCCN`, in assay [2], the EC50 was 5.4 µM.

In turn, `O=C1CCC[C@@H]2[C@H]3CCCN4CCC[C@@H](CN12)[C@@H]34` showed an Activity in assay [3] of 53%. Compound `N#CC1=C(N)Oc2[nH]nc(-c3ccc(F)cc3)c2C1c1c[nH]nc1-c1ccc(F)cc1` (stereo unspecified) had an inhibition in assay [4] of 70%.
